ChEMBL document CHEMBL5500371, “Arginine and tryptophan-rich dendritic antimicrobial peptides that disrupt membranes for bacterial infection in vivo” (Eur J Med Chem, 2024)
Active and inactive are the calls of the source. No cut-off for these calls is given here. Where a SMILES comes first, the peptide text is derived from it. Side-chain parts run from the residue outwards.

Experiments:
Escherichia coli [1] = assay: Antibacterial activity against Escherichia coli ATCC 25922 assessed as inhibition of bacterial growth incubated for 20 hrs in presence of NaCl by broth microdilution method (reference value: 4 microM); format: functional, organism-based
Escherichia coli [2] = assay: Antibacterial activity against Escherichia coli ATCC 25922 assessed as inhibition of bacterial growth incubated for 20 hrs in presence of FeCl3 by broth microdilution method (reference value: 4 microM); format: functional, organism-based
Escherichia coli [3] = assay: Antibacterial activity against Escherichia coli ATCC 25922 assessed as inhibition of bacterial growth incubated for 20 hrs in presence of ZnCl2 by broth microdilution method (reference value: 4 microM); format: functional, organism-based
Staphylococcus aureus [4] = assay: Bactericidal activity against Staphylococcus aureus ATCC 25923 assessed as elimination of bacteria at 2 times MIC measured after >6 hrs by time kill assay; format: functional, organism-based
Cell membrane = assay: Induction of cell membrane damage in Escherichia coli assessed as PI uptake at 2 times MIC measured after 2 hrs by PI dye based flow cytometry analysis (reference value: 16.5%); format: cell membranes
Staphylococcus aureus [5] = assay: Resistant development in Staphylococcus aureus assessed as increase in MIC at sub-MIC measured after 20 passages; format: functional, organism-based
Escherichia coli [6] = assay: Synergistic antibacterial activity against Escherichia coli ATCC 25922 assessed as fractional inhibitory concentration index at 0.25 to 4 times MIC incubated for 20 hrs in presence of rifampicin by checkerboard assay; format: functional, organism-based
Escherichia coli [7] = assay: Synergistic antibacterial activity against Escherichia coli ATCC 25922 assessed as fractional inhibitory concentration index at 0.25 to 4 times MIC incubated for 20 hrs in presence of gentamicin by checkerboard assay; format: functional, organism-based
Escherichia coli [8] = assay: Synergistic antibacterial activity against rifampicin resistant Escherichia coli ATCC 25922 assessed as fractional inhibitory concentration index at 0.25 to 4 times MIC incubated for 20 hrs in presence of rifampicin by checkerboard assay; format: functional, organism-based
Escherichia coli [9] = assay: Antibacterial activity against Escherichia coli ATCC 25922 assessed as inhibition of bacterial growth incubated for 20 hrs in presence of NaCl by broth microdilution method (reference value: 16 microM); format: functional
Escherichia coli [10] = assay: Antibacterial activity against Escherichia coli ATCC 25922 assessed as inhibition of bacterial growth incubated for 20 hrs in presence of KCl by broth microdilution method (reference value: 16 microM); format: functional
Escherichia coli [11] = assay: Antibacterial activity against Escherichia coli ATCC 25922 assessed as inhibition of bacterial growth incubated for 20 hrs in presence of FeCl3 by broth microdilution method (reference value: 16 microM); format: functional
Escherichia coli [12] = assay: Antibacterial activity against Escherichia coli ATCC 25922 assessed as inhibition of bacterial growth incubated for 20 hrs in presence of ZnCl2 by broth microdilution method (reference value: 16 microM); format: functional
Escherichia coli [13] = assay: Additive antibacterial activity against Escherichia coli ATCC 25922 assessed as fractional inhibitory concentration index at 0.25 to 4 times MIC incubated for 20 hrs in presence of gentamicin by checkerboard assay; format: functional
Staphylococcus aureus [14] = assay: Additive antibacterial activity against rifampicin resistant Staphylococcus aureus ATCC 25923 assessed as fractional inhibitory concentration index at 0.25 to 4 times MIC incubated for 20 hrs in presence of rifampicin by checkerboard assay; format: functional
Escherichia coli [15] = assay: Antibacterial activity against Escherichia coli ATCC 25922 assessed as inhibition of bacterial growth incubated for 20 hrs in presence of NaCl by broth microdilution method (reference value: 8 microM); format: functional
Escherichia coli [16] = assay: Antibacterial activity against Escherichia coli ATCC 25922 assessed as inhibition of bacterial growth incubated for 20 hrs in presence of KCl by broth microdilution method (reference value: 8 microM); format: functional
Escherichia coli [17] = assay: Antibacterial activity against Escherichia coli ATCC 25922 assessed as inhibition of bacterial growth incubated for 20 hrs in presence of MgCl2 by broth microdilution method (reference value: 8 microM); format: functional
Escherichia coli [18] = assay: Antibacterial activity against Escherichia coli ATCC 25922 assessed as inhibition of bacterial growth incubated for 20 hrs in presence of FeCl3 by broth microdilution method (reference value: 8 microM); format: functional
Escherichia coli [19] = assay: Antibacterial activity against Escherichia coli ATCC 25922 assessed as inhibition of bacterial growth incubated for 20 hrs in presence of ZnCl2 by broth microdilution method (reference value: 8 microM); format: functional
Staphylococcus aureus [20] = assay: Antibacterial activity against Staphylococcus aureus ATCC 25923 assessed as inhibition of bacterial growth incubated for 20 hrs in presence of MgCl2 by broth microdilution method (reference value: 8 microM); format: functional
[21] = Systemic toxicity in male BALB/c mouse assessed as renal cell necrosis at 105.41 mg/kg, ip administered as single dose by H and E staining based analysis; format: organism-based; conditions: in vivo
Escherichia coli [22] = assay: […] activity against Escherichia coli ATCC 25922 infected in male BALB/c pulmonary infection model assessed as reduction in bacterial colonies at 5 to 10 mg/kg, ip administered at 3 and 12 hrs post infection and measured 24 hrs post infection; format: functional, organism-based; conditions: dose 5-10 mg/kg, time 12-21 hrs

**Q.** Which MIC (Escherichia coli [1]) does the source give for POLYMYXIN B here?
**A.** Its MIC is 4 µM.

**Q.** What about the MIC (Escherichia coli [2]) of the same compound?
**A.** Its MIC is 4 µM.

**Q.** What about the MIC (Escherichia coli [3]) of the same compound?
**A.** The MIC was 8 µM.

**Q.** What about the Activity (Staphylococcus aureus [4]) of the same compound?
**A.** Its Activity is 100%.

**Q.** What about the Activity (Cell membrane) of the same compound?
**A.** The Activity was 46.8%.

**Q.** What about the Activity (Staphylococcus aureus [5]) of the same compound?
**A.** The Activity was “inactive”.

**Q.** And the fractional inhibitory concentration index (FICI) (Escherichia coli [6])?
**A.** Its fractional inhibitory concentration index (FICI) is 0.313.

**Q.** And the fractional inhibitory concentration index (FICI) (Escherichia coli [7])?
**A.** The fractional inhibitory concentration index (FICI) was 0.313.

**Q.** What about the fractional inhibitory concentration index (FICI) (Escherichia coli [8]) of the same compound?
**A.** Its fractional inhibitory concentration index (FICI) is 0.313.

**Q.** Which results are given for N=C(N)NCCC[C@H](NC(=O)[C@@H](N)CCCNC(=N)N)C(=O)NCCCC[C@H](NC(=O)[C@H](CCCNC(=N)N)NC(=O)[C@@H](N)CCCNC(=N)N)C(=O)N[C@@H](Cc1c[nH]c2ccccc12)C(=O)N[C@@H](Cc1c[nH]c2ccccc12)C(=O)N[C@@H](Cc1c[nH]c2ccccc12)C(=O)N[C@@H](Cc1c[nH]c2ccccc12)C(N)=O (H-RRK([Arg-Arg])WWWW-NH2)?
**A.** MIC (Escherichia coli [9]): 32 µM; MIC (Escherichia coli [10]): 16 µM; MIC (Escherichia coli [11]): 16 µM; MIC (Escherichia coli [12]): 8 µM; fractional inhibitory concentration index (FICI) (Escherichia coli [13]): 0.563; fractional inhibitory concentration index (FICI) (Staphylococcus aureus [14]): 0.563

**Q.** Which MIC (Escherichia coli [15]) does the source give for N=C(N)NCCC[C@H](NC(=O)[C@H](CCCNC(=N)N)NC(=O)[C@H](CCCNC(=N)N)NC(=O)[C@@H](N)CCCNC(=N)N)C(=O)N[C@@H](CCCCN)C(=O)N[C@@H](Cc1c[nH]c2ccccc12)C(=O)N[C@@H](Cc1c[nH]c2ccccc12)C(=O)N[C@@H](Cc1c[nH]c2ccccc12)C(=O)N[C@@H](Cc1c[nH]c2ccccc12)C(N)=O here?
**A.** The MIC was 16 µM.

**Q.** What about the MIC (Escherichia coli [16]) of the same compound?
**A.** Its MIC is 16 µM.

**Q.** What about the MIC (Escherichia coli [17]) of the same compound?
**A.** Its MIC is 16 µM.

**Q.** And the MIC (Escherichia coli [18])?
**A.** The MIC was 16 µM.

**Q.** And the MIC (Escherichia coli [19])?
**A.** Its MIC is 8 µM.

**Q.** What about the MIC (Staphylococcus aureus [20]) of the same compound?
**A.** The MIC was 16 µM.

**Q.** And the Activity [21]?
**A.** Its Activity is “Non-Toxic”.

**Q.** What about the Activity (Escherichia coli [22]) of the same compound?
**A.** The Activity was “Active”.
